Results: patent US8952024B2, “Herbicidal pyrimidone derivatives” (E I du Pont de Nemours and Company, priority 2009, dated 2015)

Tests used:
Type in all cases: in vivo
[1] = system: giant foxtail (Setaria faberii); experiment: Test A pre-/postemergence plant response
Description: (§1) Seeds of barnyardgrass (Echinochloa crus-galli), large crabgrass (Digitaria sanguinalis), giant foxtail (Setaria faberii), morningglory (Ipomoea spp.), pigweed (Amaranthus retroflexus), velvetleaf (Abutilon theophrasti), wheat (Triticum aestivum) and corn (Zea mays) were planted into a blend of loam soil and sand and treated preemergence with a directed soil spray using test chemicals formulated in a non-phytotoxic solvent mixture which included a surfactant. At the same time these species were also treated with postemergence applications of test compounds formulated in the same manner.
(§2) Plants ranged in height from two to ten cm and were in the one- to two-leaf stage for the postemergence treatment. Treated plants and untreated controls were maintained in a greenhouse for approximately ten days, after which time all treated plants were compared to untreated controls and visually evaluated for injury. Plant response ratings, summarized in Table A, are based on a 0 to 100 scale where 0 is no effect and 100 is complete control. A dash (-) response means no test result.

[2] = system: morningglory (Ipomoea spp.); experiment: Test A pre-/postemergence plant response
Description: as §1, §2

[3] = system: barnyardgrass (Echinochloa crus-galli); experiment: Test A pre-/postemergence plant response
Description: as §1, §2

[4] = system: large crabgrass (Digitaria sanguinalis); experiment: Test A pre-/postemergence plant response
Description: as §1, §2

corn (Zea mays) = experiment: Test A pre-/postemergence plant response
Description: as §1, §2

[5] = system: wheat (Triticum aestivum); experiment: Test A pre-/postemergence plant response
Description: as §1, §2

[6] = system: velvetleaf (Abutilon theophrasti); experiment: Test A pre-/postemergence plant response
Description: as §1, §2

[7] = system: pigweed (Amaranthus retroflexus); experiment: Test A pre-/postemergence plant response
Description: as §1, §2

[8] = system: ducksalad (Heteranthera limosa); experiment: Test B flooded paddy test; conditions: for Plant response rating, Flood, Ducksalad: 250 g ai/ha, flooded paddy test, visual rating on 0 to 100 scale (0 no effect, 100 complete control) after 13 to 15 days; for Plant response rating, Ducksalad: Flood (flooded paddy test), 13 to 15 days; for Ducksalad plant response rating: Flood, 31 g ai/ha, scale 0 to 100 (0 no effect, 100 complete control)
Summary of the method: (§3)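 Greenhouse-held for 13 to 15 days, treated pots were compared visually with controls and scored 0–100 (0, no effect). Treatment had been made into paddy water kept at 3 cm above the soil, with plants at the 2-leaf stage.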

[9] = system: barnyardgrass (Echinochloa crus-galli); experiment: Test B flooded paddy test; conditions: for Plant response rating, Flood, Barnyardgrass: 250 g ai/ha, flooded paddy test, visual rating on 0 to 100 scale (0 no effect, 100 complete control) after 13 to 15 days; for Plant response rating, Barnyardgrass: Flood (flooded paddy test), 13 to 15 days; for Barnyardgrass plant response rating: Flood, 31 g ai/ha, scale 0 to 100 (0 no effect, 100 complete control)
Summary of the method: as §3

[10] = system: umbrella sedge (Cyperus difformis); experiment: Test B flooded paddy test; conditions: for Plant response rating, Flood, Sedge, Umbrella: 250 g ai/ha, flooded paddy test, visual rating on 0 to 100 scale (0 no effect, 100 complete control) after 13 to 15 days; for Plant response rating, Sedge, Umbrella: Flood (flooded paddy test), 13 to 15 days; for Sedge, Umbrella plant response rating: Flood, 31 g ai/ha, scale 0 to 100 (0 no effect, 100 complete control)
Summary of the method: as §3

rice (Oryza sativa) = experiment: Test B flooded paddy test; conditions: for Plant response rating, Flood, Rice: 250 g ai/ha, flooded paddy test, visual rating on 0 to 100 scale (0 no effect, 100 complete control) after 13 to 15 days; for Plant response rating, Rice: Flood (flooded paddy test), 13 to 15 days; for Rice plant response rating: Flood, 31 g ai/ha, scale 0 to 100 (0 no effect, 100 complete control)
Summary of the method: as §3

[11] = Postemergence, 125 g ai/ha, 0 to 100 scale where 0 is no effect and 100 is complete control
[12] = Postemergence, 500 g ai/ha, 0 to 100 scale, 0 = no effect, 100 = complete control, approx. ten days
[13] = Preemergence, 125 g ai/ha, 0 to 100 scale, 0 = no effect, 100 = complete control
[14] = Preemergence, 500 g ai/ha, visual injury, 0 to 100 scale (0 no effect, 100 complete control), approx. ten days
[15] = Preemergence, 500 g ai/ha, 0 to 100 scale, 0 = no effect, 100 = complete control
[16] = 62 g ai/ha, scale of 0 to 100 where 0 is no effect and 100 is complete control
[17] = 125 g ai/ha, scale 0 to 100, 0 is no effect, 100 is complete control
[18] = Postemergence, 500 g ai/ha, visual injury, 0 to 100 scale (0 no effect, 100 complete control), approx. ten days

## Cc1ccc(F)cc1-n1c(-c2cccc(Br)c2)ncc(C(=O)C2=C(O)CCCC2=O)c1=O [Compound 154]
[1]; [11]
  Plant response rating, Foxtail, Giant: 60
[1]; [12]
  Plant response rating, Foxtail, Giant: 90
[1]; [13]
  Plant response rating, Foxtail, Giant: 10
[1]; [14]
  Plant response rating, Foxtail, Giant: 30
[2]; [11]
  Plant response rating, Morningglory: 30
[2]; [12]
  Plant response rating, Morningglory: 70
[2]; [13]
  Plant response rating, Morningglory: 0
[2]; [14]
  Plant response rating, Morningglory: 0
[3]; [11]
  Plant response rating, Barnyardgrass: 90
[3]; [12]
  Plant response rating, Barnyardgrass: 90
[3]; [13]
  Plant response rating, Barnyardgrass: 0
[3]; [14]
  Plant response rating, Barnyardgrass: 40
[4]; [11]
  Plant response rating, Crabgrass, Large: 70
[4]; [12]
  Plant response rating, Crabgrass, Large: 100
[4]; [13]
  Plant response rating, Crabgrass, Large: 10
[4]; [14]
  Plant response rating, Crabgrass, Large: 50
Corn (Zea mays); [11]
  Plant response rating, Corn: 0
Corn (Zea mays); [12]
  Plant response rating, Corn: 10
Corn (Zea mays); [13]
  Plant response rating, Corn: 0
Corn (Zea mays); [14]
  Plant response rating, Corn: 0
[5]; [11]
  Plant response rating, Wheat: 0
[5]; [12]
  Plant response rating, Wheat: 0
[5]; [13]
  Plant response rating, Wheat: 0
[5]; [15]
  Plant response rating, Wheat: 0
[6]; [11]
  Plant response rating, Velvetleaf: 100
[6]; [12]
  Plant response rating, Velvetleaf: 100
[6]; [13]
  Plant response rating, Velvetleaf: 40
[6]; [15]
  Plant response rating, Velvetleaf: 80
[7]; [11]
  Plant response rating, Pigweed: 60
[7]; [12]
  Plant response rating, Pigweed: 100
[7]; [13]
  Plant response rating, Pigweed: 30
[7]; [14]
  Plant response rating, Pigweed: 80
[8]
  Plant response rating, Flood, Ducksalad: 100
  Ducksalad plant response rating: 0
[8]; [16]
  Plant response rating, Ducksalad: 50
[8]; [17]
  Plant response rating, Ducksalad: 70
[9]
  Plant response rating, Flood, Barnyardgrass: 40
  Barnyardgrass plant response rating: 0
[9]; [16]
  Plant response rating, Barnyardgrass: 0
[9]; [17]
  Plant response rating, Barnyardgrass: 0
[10]
  Plant response rating, Flood, Sedge, Umbrella: 100
  Sedge, Umbrella plant response rating: 0
[10]; [16]
  Plant response rating, Sedge, Umbrella: 95
[10]; [17]
  Plant response rating, Sedge, Umbrella: 95
Rice (Oryza sativa)
  Plant response rating, Flood, Rice: 75
  Rice plant response rating: 0
Rice (Oryza sativa); [16]
  Plant response rating, Rice: 0
Rice (Oryza sativa); [17]
  Plant response rating, Rice: 60

## Cc1cccc(-c2ncc(C(=O)C3=C(O)CCCC3=O)c(=O)n2-c2ccc(F)cc2C)c1 [Compound 192]
[1]; [11]
  Plant response rating, Foxtail, Giant: 50
[1]; [18]
  Foxtail, Giant plant response rating: 70
[1]; [13]
  Plant response rating, Foxtail, Giant: 0
[1]; [15]
  Plant response rating, Foxtail, Giant: 40
[2]; [18]
  Morningglory plant response rating: 70
[2]; [13]
  Plant response rating, Morningglory: 0
[2]; [15]
  Plant response rating, Morningglory: 0
[3]; [11]
  Plant response rating, Barnyardgrass: 60
[3]; [18]
  Barnyardgrass plant response rating: 90
[3]; [13]
  Plant response rating, Barnyardgrass: 10
[3]; [15]
  Plant response rating, Barnyardgrass: 30
[4]; [11]
  Plant response rating, Crabgrass, Large: 30
[4]; [18]
  Crabgrass, Large plant response rating: 80
[4]; [13]
  Plant response rating, Crabgrass, Large: 10
[4]; [15]
  Plant response rating, Crabgrass, Large: 40
Corn (Zea mays); [11]
  Plant response rating, Corn: 0
Corn (Zea mays); [18]
  Corn plant response rating: 40
Corn (Zea mays); [13]
  Plant response rating, Corn: 40
Corn (Zea mays); [15]
  Plant response rating, Corn: 40
[5]; [11]
  Plant response rating, Wheat: 0
[5]; [18]
  Wheat plant response rating: 0
[5]; [13]
  Plant response rating, Wheat: 0
[5]; [15]
  Plant response rating, Wheat: 20
[6]; [11]
  Plant response rating, Velvetleaf: 70
[6]; [18]
  Velvetleaf plant response rating: 100
[6]; [13]
  Plant response rating, Velvetleaf: 0
[6]; [15]
  Plant response rating, Velvetleaf: 60
[7]; [11]
  Plant response rating, Pigweed: 60
[7]; [18]
  Pigweed plant response rating: 80
[7]; [13]
  Plant response rating, Pigweed: 0
[7]; [15]
  Plant response rating, Pigweed: 50
[8]
  Plant response rating, Flood, Ducksalad: 75
  Ducksalad plant response rating: 60
[8]; [16]
  Plant response rating, Ducksalad: 60
[8]; [17]
  Plant response rating, Ducksalad: 75
[9]
  Plant response rating, Flood, Barnyardgrass: 0
  Barnyardgrass plant response rating: 0
[9]; [16]
  Plant response rating, Barnyardgrass: 0
[9]; [17]
  Plant response rating, Barnyardgrass: 0
[10]
  Plant response rating, Flood, Sedge, Umbrella: 60
  Sedge, Umbrella plant response rating: 0
[10]; [16]
  Plant response rating, Sedge, Umbrella: 40
[10]; [17]
  Plant response rating, Sedge, Umbrella: 50
Rice (Oryza sativa)
  Plant response rating, Flood, Rice: 20
  Rice plant response rating: 0
Rice (Oryza sativa); [16]
  Plant response rating, Rice: 0
Rice (Oryza sativa); [17]
  Plant response rating, Rice: 0
